The target of the assay is T1, human CH24H (Homo sapiens, UniProt Q9Y6A2).
T1 construct: Using Full-Length Mammalian Gene Collection No. 4819975 (Invitrogen) as a template; made in house; host or cells: FreeStyle 293-F cells, transient transfection with pcDNA3.1(+)/hCH24H; lysate supernatant, not purified
Briefly: Measurement of CH24H inhibitory activity (24-HC produced from [14C] cholesterol by human CH24H lysate). It counts as biochemical. The settings on record: 1 μM test compound, [14C] cholesterol 15 μM, 37° C. for 5 hr, read-out: Inhibitory Rate in 1 μM (%). On the procedure: The expression of human CH24H was performed using FreeStyle 293 Expression System (Invitrogen). […] After transfection, the cells were cultured at 37° C., 8% CO2 with shaking at 125 rpm for 2 days. The cells were collected by centrifugation, and suspended in a suspension buffer (100 mM potassium phosphate (pH 7.4), 0.1 mM EDTA, 1 mM DTT, 20% Glycerol). The suspended product was disrupted by a polytron homogenizer (manufactured by Kinematica), and centrifuged at 9000×g for 10 min, and the supernatant was collected. The collected supernatant was cryopreserved (−80° C.) as a human CH24H lysate standard product.
For the measurement of CH24H inhibitory activity, using the human CH24H lysate prepared in Experimental Example 2, the amount of 24-HC produced from cholesterol by catalytic activity of CH24H was measured in the presence of a test compound, and compared with that measured in the absence of the test compound. That is, a test compound solution at various concentrations was mixed with a reaction buffer (50 mM potassium phosphate containing 0.1% BSA and Complete, EDTA-free, pH 7.4) and human CH24H lysate. Then, [^14C] cholesterol (53 mCi/mmol specific activity, 15 μM) was added, and CH24H reaction was performed at 37° C. for 5 hr. After completion of the reaction, a quenching solution consisting of chloroform/methanol/distilled water (2:2:1 v/v) was added, and the resulting 24-HC was extracted by shaking. The extract was applied to silica gel thin layer chromatography (ethyl acetate:toluene=4:6), and the obtained ^14C-24HC fraction was measured with BAS2500 (Fujifilm Corporation).
The inhibitory rate (%) was calculated from the ratio of radioactivity in the presence of a test compound relative to the radioactivity in the absence of the test compound.

This note sets out measurements from patent publication US9643957B2, “Heterocyclic compounds having cholesterol 24-hydroxylase activity” (TAKEDA PHARMACEUTICAL COMPANY LIMITED, priority 2012, dated 2017).

T1 sequence (Q9Y6A2 whole entry): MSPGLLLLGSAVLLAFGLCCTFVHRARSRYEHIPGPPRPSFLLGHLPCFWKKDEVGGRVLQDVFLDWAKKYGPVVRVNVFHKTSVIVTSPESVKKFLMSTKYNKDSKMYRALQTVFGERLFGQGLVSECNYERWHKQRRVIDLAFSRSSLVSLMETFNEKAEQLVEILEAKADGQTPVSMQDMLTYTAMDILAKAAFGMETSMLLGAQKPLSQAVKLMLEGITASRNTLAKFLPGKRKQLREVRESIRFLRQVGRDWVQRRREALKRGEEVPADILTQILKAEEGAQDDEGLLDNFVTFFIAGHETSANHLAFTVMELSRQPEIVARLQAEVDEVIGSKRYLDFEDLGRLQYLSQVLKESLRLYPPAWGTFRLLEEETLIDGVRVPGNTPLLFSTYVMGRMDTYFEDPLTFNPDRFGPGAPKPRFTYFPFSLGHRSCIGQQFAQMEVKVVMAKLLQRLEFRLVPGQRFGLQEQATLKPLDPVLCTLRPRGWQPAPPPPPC

Turning to `CO[C@H]1CCN(C(=O)C2CCN(c3cnccc3-n3cc(C)cn3)CC2)C1` [Example 301, ((3S)-3-methoxypyrrolidin-1-yl)(1-(4-(4-methyl-1H-pyrazol-1-yl)pyridin-3-yl)piperidin-4-yl)methanone], the inhibition at 1 µM came to 86%.
As for `CO[C@H]1CCN(C(=O)C2CCN(c3cncnc3-c3ccc(F)cc3)CC2)C1` [Example 303, (1-(4-(4-fluorophenyl)pyrimidin-5-yl)piperidin-4-yl)((3S)-3-methoxypyrrolidin-1-yl)methanone], the figure is 85%; as for `CC1CCCN1C(=O)C1CCN(c2cnccc2-n2cc(Cl)cn2)CC1` (centres unmarked) [Example 25, (1-(4-(4-chloro-1H-pyrazol-1-yl)pyridin-3-yl)piperidin-4-yl)(2-methylpyrrolidin-1-yl)methanone], 97%; as for `O=C(N1CCN(c2cncnc2-c2ccccc2)CC1)N(CCF)Cc1ccccc1` [Example 314, N-benzyl-N-(2-fluoroethyl)-4-(4-phenylpyrimidin-5-yl)piperazine-1-carboxamide], 91%.
In the case of `O=C(C1CCN(c2cnccc2-n2cc(Cl)cn2)CC1)N1CC(F)C1` [Example 281, (1-(4-(4-chloro-1H-pyrazol-1-yl)pyridin-3-yl)piperidin-4-yl) (3-fluoroazetidin-1-yl)methanone] it was 84%.
In the case of `Cc1cnn(-c2ccncc2N2CCC(C(=O)N(C)C3CCOCC3)CC2)c1` [Example 296, N-methyl-1-(4-(4-methyl-1H-pyrazol-1-yl)pyridin-3-yl)-N-(tetrahydro-2H-pyran-4-yl)piperidine-4-carboxamide] it was 86%; in that of `CN(Cc1ccccc1)C(=O)N1CCN(c2cncnc2-c2ccccc2)CC1` [Example 298, N-benzyl-N-methyl-4-(4-phenylpyrimidin-5-yl)piperazine-1-carboxamide], 79%; in that of `O=C(C1CCN(c2cnccc2-n2cc(Cl)cn2)CC1)N1CCS(=O)(=O)CC1` [Example 30, (1-(4-(4-chloro-1H-pyrazol-1-yl)pyridin-3-yl)piperidin-4-yl)(1,1-dioxidothiomorpholin-4-yl)methanone], 97%.
Take `Cc1cnn(-c2ccncc2N2CCC(C(=O)N3CC(F)(F)C[C@H]3C#N)CC2)c1` [Example 121, (2S)-4,4-difluoro-1-((1-(4-(4-methyl-1H-pyrazol-1-yl)pyridin-3-yl)piperidin-4-yl)carbonyl)pyrrolidine-2-carbonitrile]: the inhibition at 1 µM is 80%.
Turning to `CO[C@H]1CCN(C(=O)C2CCN(c3cnccc3-n3cc(Cl)cn3)CC2)C1` [Example 299, (1-(4-(4-chloro-1H-pyrazol-1-yl)pyridin-3-yl)piperidin-4-yl)((3S)-3-methoxypyrrolidin-1-yl)methanone], the inhibition at 1 µM came out at 84%.
In the case of `O=C(CCn1ncc2ccccc21)N1CCN(c2cnccc2-c2ccccc2)CC1` [Example 183, 3-(1H-indazol-1-yl)-1-(4-(4-phenylpyridin-3-yl)piperazin-1-yl)propan-1-one] it was 92%.
As for `O=C(OCc1ccccc1)N1CCN(c2cncnc2-c2ccccc2)CC1` [Example 169, benzyl 4-(4-phenylpyrimidin-5-yl)piperazine-1-carboxylate], the figure is 97%; as for `Cc1cnc(-c2ccncc2N2CCC(C(=O)N(C)C)CC2)o1` [Example 2, N,N-dimethyl-1-(4-(5-methyl-1,3-oxazol-2-yl)pyridin-3-yl)piperidine-4-carboxamide], 80%.
As for `Cc1cnn(-c2ccncc2N2CCC(C(=O)N(CCF)[C@@H]3CCOC3)CC2)c1` [Example 313, N-(2-fluoroethyl)-1-(4-(4-methyl-1H-pyrazol-1-yl)pyridin-3-yl)-N-((3R)-tetrahydrofuran-3-yl)piperidine-4-carboxamide], the inhibition at 1 µM was 82%.
As for `O=C(C1CCN(c2cnccc2-n2cc(Cl)cn2)CC1)N1CC[C@@H](F)C1` [Example 285, (1-(4-(4-chloro-1H-pyrazol-1-yl)pyridin-3-yl)piperidin-4-yl)((3R)-3-fluoropyrrolidin-1-yl)methanone], the inhibition at 1 µM is 82%.
In the case of `O=C(C1CCN(c2cncnc2-c2ccc(F)cc2)CC1)N1CC[C@@H](F)C1` [Example 287, (1-(4-(4-fluorophenyl)pyrimidin-5-yl)piperidin-4-yl)((3R)-3-fluoropyrrolidin-1-yl)methanone] it was 89%; in that of `CN(C)C(=O)C1CCN(c2cnccc2-n2cc(C#N)cn2)CC1` [Example 83, 1-(4-(4-cyano-1H-pyrazol-1-yl)pyridin-3-yl)-N,N-dimethylpiperidine-4-carboxamide], 74%; in that of `O=C(C1CCN(c2cnccc2-n2cc(Br)cn2)CC1)N1CC(F)C1` [Example 319, (1-(4-(4-bromo-1H-pyrazol-1-yl)pyridin-3-yl)piperidin-4-yl) (3-fluoroazetidin-1-yl)methanone], 96%.
As for `CC1(C)CCCN1C(=O)C1CCN(c2cnccc2-n2cc(Cl)cn2)CC1` [Example 26, (1-(4-(4-chloro-1H-pyrazol-1-yl)pyridin-3-yl)piperidin-4-yl)(2,2-dimethylpyrrolidin-1-yl)methanone], the figure is 98%.
With `CN(C(=O)C1CCN(c2cncnc2-c2ccc(F)cc2)CC1)C1CCOCC1` [Example 288, 1-(4-(4-fluorophenyl)pyrimidin-5-yl)-N-methyl-N-(tetrahydro-2H-pyran-4-yl)piperidine-4-carboxamide], the inhibition at 1 µM amounted to 84%.
As for `Cc1cnn(-c2ccncc2N2CCC(C(=O)N(C)[C@H]3CCOC3)CC2)c1` [Example 305, N-methyl-1-(4-(4-methyl-1H-pyrazol-1-yl)pyridin-3-yl)-N-((3S)-tetrahydrofuran-3-yl)piperidine-4-carboxamide], the figure is 85%; as for `O=C(NCc1ccccn1)N1CCN(c2cncnc2-c2ccccc2)CC1` [Example 188, 4-(4-phenylpyrimidin-5-yl)-N-(pyridin-2-ylmethyl)piperazine-1-carboxamide], 81%.
Consider `Cc1cnn(-c2ccncc2N2CCN(C(=O)N(CCF)Cc3ccc(F)cc3)CC2)c1` [Example 315, N-(4-fluorobenzyl)-N-(2-fluoroethyl)-4-(4-(4-methyl-1H-pyrazol-1-yl)pyridin-3-yl)piperazine-1-carboxamide], for which the inhibition at 1 µM came to 94%.
In the case of `CN(C(=O)C1CCN(c2cnccc2-n2cc(Cl)cn2)CC1)C1CC1` [Example 58, 1-(4-(4-chloro-1H-pyrazol-1-yl)pyridin-3-yl)-N-cyclopropyl-N-methylpiperidine-4-carboxamide] it was 96%; in that of `CN(C(=O)C1CCN(c2cncnc2-c2ccc(F)cc2)CC1)C1CC1` [Example 277, N-cyclopropyl-1-(4-(4-fluorophenyl)pyrimidin-5-yl)-N-methylpiperidine-4-carboxamide], 94%; in that of `Cc1cnn(-c2ccncc2N2CCC(C(=O)N3CCC[C@H]3C(N)=O)CC2)c1` [Example 114, 1-((1-(4-(4-methyl-1H-pyrazol-1-yl)pyridin-3-yl)piperidin-4-yl)carbonyl)-L-prolinamide], 86%.
